In patent publication US12662465B2, “EGFR inhibitors” (Blueprint Medicines Corporation, priority 2021, dated 2026):
Read-outs that look alike come from different tables or passages of the source.

Legend:
[1] = biological target: T1, EGFR (d746-750) (Homo sapiens, UniProt P00533, DEL746-750); assay: Biochemical EGFR inhibition assay (Caliper mobility shift), EGFR (d746-750); conditions: read-out: Enz EGFR_Exon19-del746-750 IC50
T1 construct: purchased SignalChem E10-122JG

[2] = biological target: intracellular phosphorylation of EGFR (Tyr1068) in PC-9 cells (Ex19Del) (Homo sapiens, UniProt P00533, DEL746-750); assay: PC-9 pEGFR AlphaLISA assay; assay type: cell-based; conditions: 4 hours compound incubation, read-out: Ext pEGFR_PC-9 Ex19Del IC50
[3] = biological target: T2, EGFR L858R (Homo sapiens, UniProt P00533, L858R); assay: Biochemical EGFR inhibition assay (Caliper mobility shift), EGFR L858R; conditions: read-out: Enz EGFR_L858R IC50
T2 construct: purchased SignalChem E10-122BG

[4] = 1.0 mM ATP or ATP Km, room temperature (25° C.)

T2 sequence (P00533 25-1210 L858R): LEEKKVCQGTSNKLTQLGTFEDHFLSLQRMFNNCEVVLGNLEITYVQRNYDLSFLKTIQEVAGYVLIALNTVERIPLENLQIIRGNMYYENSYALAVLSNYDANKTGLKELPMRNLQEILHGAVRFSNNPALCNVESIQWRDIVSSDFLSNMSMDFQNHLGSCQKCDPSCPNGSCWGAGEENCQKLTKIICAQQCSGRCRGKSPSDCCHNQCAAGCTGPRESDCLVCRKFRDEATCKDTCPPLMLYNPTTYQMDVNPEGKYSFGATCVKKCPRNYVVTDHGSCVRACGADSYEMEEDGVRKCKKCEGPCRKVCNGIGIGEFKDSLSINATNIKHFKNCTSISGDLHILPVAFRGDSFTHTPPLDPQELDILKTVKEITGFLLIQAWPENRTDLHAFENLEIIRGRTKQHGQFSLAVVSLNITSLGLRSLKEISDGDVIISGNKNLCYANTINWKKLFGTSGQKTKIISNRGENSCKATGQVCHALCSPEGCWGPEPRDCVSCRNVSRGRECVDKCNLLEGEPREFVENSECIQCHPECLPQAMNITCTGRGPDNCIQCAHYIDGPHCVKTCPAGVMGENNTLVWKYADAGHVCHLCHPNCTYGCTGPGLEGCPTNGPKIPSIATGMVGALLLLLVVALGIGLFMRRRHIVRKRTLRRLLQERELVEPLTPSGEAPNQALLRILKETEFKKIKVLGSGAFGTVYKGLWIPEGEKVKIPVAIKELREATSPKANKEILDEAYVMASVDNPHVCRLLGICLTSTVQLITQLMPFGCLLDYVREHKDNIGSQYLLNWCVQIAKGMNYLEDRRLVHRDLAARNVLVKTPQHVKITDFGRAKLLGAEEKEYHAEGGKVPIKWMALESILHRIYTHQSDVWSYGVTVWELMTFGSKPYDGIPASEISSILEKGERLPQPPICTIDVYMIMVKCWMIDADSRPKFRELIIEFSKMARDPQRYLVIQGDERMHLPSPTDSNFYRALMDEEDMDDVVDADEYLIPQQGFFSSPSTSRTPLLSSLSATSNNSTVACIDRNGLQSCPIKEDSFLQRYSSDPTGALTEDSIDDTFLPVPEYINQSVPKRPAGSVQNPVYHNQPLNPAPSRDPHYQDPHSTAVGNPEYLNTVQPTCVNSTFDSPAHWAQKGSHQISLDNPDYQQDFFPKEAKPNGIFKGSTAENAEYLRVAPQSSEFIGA
intracellular phosphorylation of EGFR (Tyr1068) in PC-9 cells (Ex19Del), sequence (P00533 with tags, fused parts or gaps DEL746-750): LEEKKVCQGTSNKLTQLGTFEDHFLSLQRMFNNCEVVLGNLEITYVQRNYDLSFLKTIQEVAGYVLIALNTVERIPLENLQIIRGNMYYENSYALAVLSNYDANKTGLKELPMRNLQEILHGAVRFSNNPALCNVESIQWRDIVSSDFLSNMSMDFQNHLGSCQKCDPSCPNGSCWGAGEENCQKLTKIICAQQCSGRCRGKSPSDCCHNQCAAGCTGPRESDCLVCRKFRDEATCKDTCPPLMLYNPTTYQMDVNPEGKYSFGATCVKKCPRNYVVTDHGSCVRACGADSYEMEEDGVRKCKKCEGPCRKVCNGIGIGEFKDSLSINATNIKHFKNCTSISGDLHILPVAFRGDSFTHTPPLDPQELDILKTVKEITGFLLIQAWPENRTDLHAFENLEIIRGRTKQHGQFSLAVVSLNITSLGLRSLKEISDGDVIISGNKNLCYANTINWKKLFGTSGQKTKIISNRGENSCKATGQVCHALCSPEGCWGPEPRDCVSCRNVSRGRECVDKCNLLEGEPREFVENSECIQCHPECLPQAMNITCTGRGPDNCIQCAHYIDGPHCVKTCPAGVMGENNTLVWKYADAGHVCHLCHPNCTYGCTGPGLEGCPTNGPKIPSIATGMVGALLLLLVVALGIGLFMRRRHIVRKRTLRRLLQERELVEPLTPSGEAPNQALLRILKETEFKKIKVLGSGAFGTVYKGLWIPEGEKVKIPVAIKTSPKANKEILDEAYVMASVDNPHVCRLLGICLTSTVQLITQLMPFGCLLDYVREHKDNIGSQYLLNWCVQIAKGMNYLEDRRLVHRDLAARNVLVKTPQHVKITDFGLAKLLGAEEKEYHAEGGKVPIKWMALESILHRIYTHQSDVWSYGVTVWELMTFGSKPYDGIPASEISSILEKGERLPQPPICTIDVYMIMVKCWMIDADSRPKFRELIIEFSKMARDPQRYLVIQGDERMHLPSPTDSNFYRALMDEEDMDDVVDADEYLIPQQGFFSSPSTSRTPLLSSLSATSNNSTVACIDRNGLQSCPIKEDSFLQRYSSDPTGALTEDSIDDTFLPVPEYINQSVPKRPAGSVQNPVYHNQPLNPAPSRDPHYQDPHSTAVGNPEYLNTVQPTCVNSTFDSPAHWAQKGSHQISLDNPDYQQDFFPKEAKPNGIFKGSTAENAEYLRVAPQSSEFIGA
T1 sequence (P00533 with tags, fused parts or gaps DEL746-750 limits assumed): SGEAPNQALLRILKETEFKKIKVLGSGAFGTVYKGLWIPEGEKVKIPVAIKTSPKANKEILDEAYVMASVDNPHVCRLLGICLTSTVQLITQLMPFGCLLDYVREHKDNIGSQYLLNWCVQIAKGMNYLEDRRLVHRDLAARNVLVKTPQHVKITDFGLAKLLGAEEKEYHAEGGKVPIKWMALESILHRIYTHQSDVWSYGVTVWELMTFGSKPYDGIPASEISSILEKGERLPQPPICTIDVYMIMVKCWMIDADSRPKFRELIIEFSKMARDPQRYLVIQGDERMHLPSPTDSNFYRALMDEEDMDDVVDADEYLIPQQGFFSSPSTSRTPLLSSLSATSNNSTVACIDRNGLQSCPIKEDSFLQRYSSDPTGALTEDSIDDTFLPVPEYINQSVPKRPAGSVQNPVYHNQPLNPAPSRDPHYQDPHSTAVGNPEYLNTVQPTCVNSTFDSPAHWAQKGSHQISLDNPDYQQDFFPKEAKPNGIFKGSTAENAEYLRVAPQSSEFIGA

Row | SMILES | IC50 [1] | IC50 [2] | IC50 [3] | IC50 [1, 4] | IC50 [3, 4]
1 | C[C@@H](Oc1cc(-c2cnn([C@@H](C)CO)c2)cc2ncnc(Nc3ccc4ncccc4c3F)c12)C1COC1 (single isomer, unassigned) [Example 121, (S)-2-(4-(4-((5-fluoroquinolin-6-yl)amino)-5-((R)-1-(oxetan-3-yl)ethoxy)quinazolin-7-yl)-1H-pyrazol-1-yl)propan-1-ol or (R)-2-(4-(4-((5-fluoroquinolin-6-yl)amino)-5-((R)-1-(oxetan-3-yl)ethoxy)quinazolin-7-yl)-1H-pyrazol-1-yl)propan-1-ol] | – | ≤ 10 nM | – | < 10 nM | < 10 nM
2 | C[C@@H](Oc1cc(N2CC[C@@H](C(C)(C)O)C2)cc2ncnc(Nc3ccc4ncccc4c3F)c12)C1COC1 [Example 63, 2—((R)-1-(4-((5-fluoroquinolin-6-yl)amino)-5-((R)-1-(oxetan-3-yl)ethoxy)quinazolin-7-yl)pyrrolidin-3-yl)propan-2-ol] | < 10 nM | ≤ 10 nM | < 10 nM | – | –
3 | C[C@H](CN(C)C)Oc1cc(N2CCOC3(CC3)C2)cc2ncnc(Nc3ccc4ncccc4c3F)c12 [Example 91, (R)-5-((1-(dimethylamino)propan-2-yl)oxy)-N-(5-fluoroquinolin-6-yl)-7-(4-oxa-7-azaspiro[2.5]octan-7-yl)quinazolin-4-amine] | 10.1 to 50 nM | > 50.1 nM | > 50.1 nM | – | –
4 | C[C@@H](Oc1cc(N2CCC(N(C)C)CC2)cc2ncnc(Nc3ccc4ncccc4c3F)c12)C1COC1 [Example 78, (R)-7-(4-(dimethylamino)piperidin-1-yl)-N-(5-fluoroquinolin-6-yl)-5-(1-(oxetan-3-yl)ethoxy)quinazolin-4-amine] | < 10 nM | ≤ 10 nM | < 10 nM | – | –
5 | CCOc1cc2ncnc(Nc3ccc4ncccc4c3F)c2c(O[C@H](C)CN(C)C)n1 [Example 58, (R)-5-((1-(dimethylamino)propan-2-yl)oxy)-7-ethoxy-N-(5-fluoroquinolin-6-yl)pyrido[4,3-d]pyrimidin-4-amine] | 10.1 to 50 nM | > 50.1 nM | > 50.1 nM | – | –
6 | C[C@@H](Oc1cc(N2CC3CC(C2)O3)cc2ncnc(Nc3ccc4ncccc4c3F)c12)C1COC1 [Example 59, 7-(6-oxa-3-azabicyclo[3.1.1]heptan-3-yl)-N-(5-fluoroquinolin-6-yl)-5-((R)-1-(oxetan-3-yl)ethoxy)quinazolin-4-amine] | < 10 nM | ≤ 10 nM | < 10 nM | – | –
7 | C[C@H](CN(C)C)Oc1cc(N2CCC(C)(O)CC2)cc2ncnc(Nc3ccc4ncccc4c3F)c12 [Example 94, (R)-1-(5-((1-(dimethylamino)propan-2-yl)oxy)-4-((5-fluoroquinolin-6-yl)amino)quinazolin-7-yl)-4-methylpiperidin-4-ol] | < 10 nM | 10.1 to 50 nM | 10.1 to 50 nM | – | –
8 | COCCn1cc(-c2cc(O[C@H](C)C3COC3)c3c(Nc4ccc5ncccc5c4F)ncnc3c2)cn1 [Example 52, (R)—N-(5-fluoroquinolin-6-yl)-7-(1-(2-methoxyethyl)-1H-pyrazol-4-yl)-5-(1-(oxetan-3-yl)ethoxy)quinazolin-4-amine] | < 10 nM | ≤ 10 nM | < 10 nM | – | –
9 | C[C@@H](Oc1cc(-c2cnn(C)c2)cc2ncnc(Nc3c(F)cc4ncccc4c3F)c12)C1COC1 [Example 8, (R)—N-(5,7-difluoroquinolin-6-yl)-7-(1-methyl-1H-pyrazol-4-yl)-5-(1-(oxetan-3-yl)ethoxy)quinazolin-4-amine] | < 10 nM | ≤ 10 nM | < 10 nM | – | –
10 | CO[C@@H]1CCN(c2cc(O[C@H](C)CN(C)C)c3c(Nc4ccc5ncccc5c4F)ncnc3c2)C1 (single isomer, unassigned) [Example 87a, 5-(((R)-1-(dimethylamino)propan-2-yl)oxy)-N-(5-fluoroquinolin-6-yl)-7-((R)-3-methoxypyrrolidin-1-yl)quinazolin-4-amine or 5-(((R)-1-(dimethylamino)propan-2-yl)oxy)-N-(5-fluoroquinolin-6-yl)-7-((S)-3-methoxypyrrolidin-1-yl)quinazolin-4-amine] | – | ≤ 10 nM | – | < 10 nM | < 10 nM
11 | CN1CC[C@H](Oc2cc(-c3cnn(C)c3)cc3ncnc(Nc4ccc5ncccc5c4F)c23)C1=O [Example 25, (S)-3-((4-((5-fluoroquinolin-6-yl)amino)-7-(1-methyl-1H-pyrazol-4-yl)quinazolin-5-yl)oxy)-1-methylpyrrolidin-2-one] | < 10 nM | 10.1 to 50 nM | < 10 nM | – | –
12 | C[C@@H](Oc1cc(-c2cnn(C)c2)cc2ncnc(Nc3ccc4ncccc4c3F)c12)[C@@H]1COCCN1C (single isomer, unassigned) [Example 126] | – | ≤ 10 nM | – | < 10 nM | < 10 nM
13 | CC(=O)N1CC2(C1)CN(c1cc(O[C@H](C)CN(C)C)c3c(Nc4ccc5ncccc5c4F)ncnc3c1)C2 [Example 154, (R)-1-(6-(5-((1-(dimethylamino)propan-2-yl)oxy)-4-((5-fluoroquinolin-6-yl)amino)quinazolin-7-yl)-2,6-diazaspiro[3.3]heptan-2-yl)ethan-1-one] | < 10 nM | ≤ 10 nM | < 10 nM | – | –

Continued, values first:

Row | IC50 [1] | IC50 [2] | IC50 [3] | IC50 [1, 4] | IC50 [3, 4] | SMILES
14 | < 10 nM | 10.1 to 50 nM | 10.1 to 50 nM | – | – | C[C@H](CN(C)C)Oc1cc(-c2cnn(C)c2)cc2ncnc(Nc3ccc4nccnc4c3)c12 [Example 103, (R)-5-((1-(dimethylamino)propan-2-yl)oxy)-7-(1-methyl-1H-pyrazol-4-yl)-N-(quinoxalin-6-yl)quinazolin-4-amine]
15 | < 10 nM | ≤ 10 nM | < 10 nM | – | – | C[C@@H](Oc1cc(-c2cnn(C)c2)cc2ncnc(Nc3ccc4ncccc4c3F)c12)C(CO)CO [Example 111, (R)-2-(1-((4-((5-fluoroquinolin-6-yl)amino)-7-(1-methyl-1H-pyrazol-4-yl)quinazolin-5-yl)oxy)ethyl)propane-1,3-diol]
16 | < 10 nM | ≤ 10 nM | < 10 nM | – | – | C[C@H](CN(C)C1CCC1)Oc1cc(-c2cnn(C)c2)cc2ncnc(Nc3ccc4ncccc4c3F)c12 [Example 115, (R)-5-((1-(cyclobutyl(methyl)amino)propan-2-yl)oxy)-N-(5-fluoroquinolin-6-yl)-7-(1-methyl-1H-pyrazol-4-yl)quinazolin-4-amine]
17 | < 10 nM | ≤ 10 nM | < 10 nM | – | – | Cc1cnn(-c2cc(O[C@H](C)CN(C)C)c3c(Nc4ccc5ncccc5c4F)ncnc3c2)c1 [Example 83, (R)-5-((1-(dimethylamino)propan-2-yl)oxy)-N-(5-fluoroquinolin-6-yl)-7-(4-methyl-1H-pyrazol-1-yl)quinazolin-4-amine]
18 | < 10 nM | 10.1 to 50 nM | 10.1 to 50 nM | – | – | Cc1ccc2c(F)c(Nc3ncnc4cc(-c5cnn(C)c5)cc(O[C@H](C)CN(C)C)c34)ccc2n1 [Example 107, (R)-5-((1-(dimethylamino)propan-2-yl)oxy)-N-(5-fluoro-2-methylquinolin-6-yl)-7-(1-methyl-1H-pyrazol-4-yl)quinazolin-4-amine]
19 | – | ≤ 10 nM | – | < 10 nM | < 10 nM | C[C@H](Oc1cc(-c2cnn(C)c2)cc2ncnc(Nc3ccc4ncccc4c3F)c12)C(=O)N(C)C (single isomer, unassigned) [Example 137, (S)-2-((4-((5-fluoroquinolin-6-yl)amino)-7-(1-methyl-1H-pyrazol-4-yl)quinazolin-5-yl)oxy)-N,N-dimethylpropanamide or (R)-2-((4-((5-fluoroquinolin-6-yl)amino)-7-(1-methyl-1H-pyrazol-4-yl)quinazolin-5-yl)oxy)-N,N-dimethylpropanamide]
20 | – | ≤ 10 nM | – | < 10 nM | < 10 nM | C[C@@H](CN(C)C)Oc1cc(-c2cnn(C)c2)cc2ncnc(Nc3ccc4ncccc4c3)c12 (single isomer, unassigned) [Example 44, (S)-5-((1-(dimethylamino)propan-2-yl)oxy)-7-(1-methyl-1H-pyrazol-4-yl)-N-(quinolin-6-yl)quinazolin-4-amine or (R)-5-((1-(dimethylamino)propan-2-yl)oxy)-7-(1-methyl-1H-pyrazol-4-yl)-N-(quinolin-6-yl)quinazolin-4-amine]
21 | < 10 nM | ≤ 10 nM | < 10 nM | – | – | C[C@H](CN(C)C)Oc1cc(-c2cnn(C)c2)cc2ncnc(Nc3c(F)cc4ncccc4c3F)c12 [Example 106, (R)—N-(5,7-difluoroquinolin-6-yl)-5-((1-(dimethylamino)propan-2-yl)oxy)-7-(1-methyl-1H-pyrazol-4-yl)quinazolin-4-amine]
22 | – | ≤ 10 nM | – | < 10 nM | < 10 nM | CC[C@H](Oc1cc(-c2cnn(C)c2)cc2ncnc(Nc3ccc4ncccc4c3F)c12)C1COC1 (single isomer, unassigned) [Example 23, (S)—N-(5-fluoroquinolin-6-yl)-7-(1-methyl-1H-pyrazol-4-yl)-5-(1-(oxetan-3-yl)propoxy)quinazolin-4-amine or ((R)—N-(5-fluoroquinolin-6-yl)-7-(1-methyl-1H-pyrazol-4-yl)-5-(1-(oxetan-3-yl)propoxy)quinazolin-4-amine]
23 | < 10 nM | ≤ 10 nM | < 10 nM | – | – | [2H]c1c(-c2cnn(C)c2)cc(O[C@H](C)CN(C)C)c2c(Nc3ccc4ncccc4c3F)ncnc12 [Example 158, (R)-5-((1-(dimethylamino)propan-2-yl)oxy)-N-(5-fluoroquinolin-6-yl)-7-(1-methyl-1H-pyrazol-4-yl)quinazolin-8-d-4-amine]
